Values quoted from earlier work, collected in patent US7687487B2, “Camptothecin-analog with a novel, “flipped” lactone-stable, E-ring and methods for making and using same” (BioNumerik Pharmaceuticals, Inc., priority 2007, dated 2010).
“Also recorded” adds a separate entry of the source. Like-named read-outs stand apart in the source and are kept apart here.

What was measured:
[1] = not given; remark: listed apart in the source
gastrointestinal cancer = conditions: after 2 months (8 or 9 weeks)
[2] = tested on: advanced malignant melanoma; conditions: fifteen patients
[3] = 24 hours after administration, once daily for 5 days, 6.5-20 mg/m^2/day
[4] = versus lactone form
tumors by Tumor Type = conditions: et al
[5] = for Toxicity: et al, * Dose Limiting Toxicity

CC[C@@]1(O)C(=O)OCc2c1cc1n(c2=O)Cc2cc3ccccc3nc2-1 [CPT sodium]
Cystitis (% of 27 Patients) (5-Day Course, P < 0.05): 48 (P < 0.05) %
Cystitis (% of 34 Patients) (Single Dose method of administration): 24%
persistence of diarrhea (higher doses): ≤ 4 weeks
onset of cystitis after treatment (in vivo): 7 to 10 days
bladder toxicity ([1]; doses of 20 to 30 mg/m^2): dose limiting in three patients
most prominent non-hematologic toxic effect ([1]; fifteen patients, 20-67 mg/m^2 weekly, intravenous push): Cystitis
patients with partial objective improvement (gastrointestinal cancer): only two of their 61 patients
50% or greater decrease in tumor diameter ([2]; 90-360 mg/m^2 every 2 weeks): None of the patients
myelosuppression ([2]; 90-360 mg/m^2 every 2 weeks): 11 patients
less pronounced transient tumor regression ([2]; no clinical benefit associated): three patients
relation of plasma CPT levels to dose [3]: little relation to the dose given

CC[C@@](O)(C(=O)O)c1cc2n(c(=O)c1CO)Cc1cc3ccccc3nc1-2 [carboxylate form of CPT]
reduction of anti-tumor activity [4]: at least 10 fold

CCc1c2c(nc3ccc(OC(=O)N4CCC(N5CCCCC5)CC4)cc13)-c1cc3c(c(=O)n1C2)COC(=O)[C@]3(O)CC [CPT-11, 7-ethyl-10-[4-(1-piperidino)-1-piperidino]carbonyloxy camptothecin]
Tumor Type: Breast, responses (tumors by Tumor Type; Clavel, 37 Pts.): (1 PR)
Tumor Type: Mesothelioma, responses (tumors by Tumor Type; Clavel, 37 Pts.): (1 PR)
Tumor Type: Esophagus, responses (tumors by Tumor Type; Culine, 59 Pts.): (1 PR) cervix
Tumor Type: Ovarian, responses (tumors by Tumor Type; Culine, 59 Pts.): (1 PR)
Tumor Type: cervix, responses (tumors by Tumor Type; Culine, 59 Pts.): (1 PR) renal
Tumor Type: renal, responses (tumors by Tumor Type; Culine, 59 Pts.): (1 PR)
Tumor Type: NS CLC, responses (tumors by Tumor Type; Negoro, 17 Pts.): (2 PRs)
Tumor Type with responses (tumors by Tumor Type; Ohe, 36 Pts.): None
Tumor Type: Colon Ca, responses (tumors by Tumor Type; Rothenberg, 32 Pts.): (2 PRs)
Tumor Type: Cervix Ca, responses (tumors by Tumor Type; Rowinsky, 32 Pts.): (1 PR)
Tumor Type: Colon Cancer, responses (tumors by Tumor Type; Rowinsky, 32 Pts.): (1 PR)
Toxicity ([5]; Clavel, 90 min. QDx 3 Q21 Days, 37 Pts., 115 mg/m^2/d (33-115)): neutropenia*; also recorded: diarrhea,; also recorded: vomiting,
Toxicity ([5]; Ohe, 120 hr CI Q3 wks, 36 Pts., 40 mg/m^2/d (5-40)): diarrhea*; also recorded: vomiting,; also recorded: thrombocytopenia; also recorded: Anemia; also recorded: liver
major reported dose-limiting toxicities ([5]; Phase I clinical trials summarised in Table VII): Neutropenia and diarrhea
